# Results published in patent publication US9695191B2, “Conformationally constrained, fully synthetic macrocyclic compounds” (POLYPHOR AG, priority 2009, dated 2017).
# Like-named read-outs stand apart in the source and are kept apart here.
# Assays:
# [1] = target: T1, 5-hydroxytryptamine 2B (5-HT2B) receptor (Homo sapiens, UniProt P41595); test: Ca2+ assay (FLIPR), 5-hydroxytryptamine 2B (5-HT2B) receptor, agonist mode (percentage activation); type: cell-based
# T1 construct: expressed in transfected cells; host or cells: Ca2+ optimized hematopoietic cell lines (rat)
# T1 sequence (P41595 whole entry): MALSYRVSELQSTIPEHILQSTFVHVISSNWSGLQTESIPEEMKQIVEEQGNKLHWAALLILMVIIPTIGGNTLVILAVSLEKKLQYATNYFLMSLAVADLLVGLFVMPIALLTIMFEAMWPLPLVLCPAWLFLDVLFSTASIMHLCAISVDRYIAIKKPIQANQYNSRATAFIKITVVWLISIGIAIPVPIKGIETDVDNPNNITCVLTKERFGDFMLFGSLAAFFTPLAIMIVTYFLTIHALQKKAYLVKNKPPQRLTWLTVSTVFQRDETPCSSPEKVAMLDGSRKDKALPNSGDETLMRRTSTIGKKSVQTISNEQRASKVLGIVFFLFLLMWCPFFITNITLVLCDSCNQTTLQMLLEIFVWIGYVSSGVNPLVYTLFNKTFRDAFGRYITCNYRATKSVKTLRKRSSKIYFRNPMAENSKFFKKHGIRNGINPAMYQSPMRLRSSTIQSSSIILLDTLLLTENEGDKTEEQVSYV
# Protocol: Dose dependent agonist and antagonist activities were determined. Percentage activation and percentage inhibition values were determined.
# Percentage activation was determined upon initial addition of the sample compounds followed by 10 minutes incubation at 25° C. Following compound incubation, reference agonists were added at EC80 to determine percentage inhibition.
# All handling of ligands were done to ensure proper control throughout the experiments.
# HBSS was supplemented with 20 mM HEPES (4-(2-hydroxyethyl)-piperazin-1-ethansulfonic acid) and 2.5 mM Probenecid (Sigma P8761).
# GPCR assays were performed using Ca^2+ optimized hematopoietic cell lines (rat) with cultures never exceeding 90% confluency. […] After seeding, the assay plates were incubated for forty-five (45) minutes at room temperature. After room temperature incubation, the assay plates were incubated at 37° C. 5% CO2 for 24 hours prior to assaying.
# All GPCR assays were performed using Fluo-8 Ca^2+ dye. Ca^2+ dye was prepared at 1× dye concentration in GPCR assay buffer. […] The plates were incubated for 90 minutes at 30° C. 5% CO2 prior to FLIPR assay.
# Compound plates were prepared to add 50 μL/well during the agonist assay mode. During the FLIPR assay, 50 μL/well from the compound plate was diluted 3-fold into the existing 100 μL/well from the dye loading step. Therefore all compounds were prepared as 3× the final concentration desired in the assay.
# After completion of the first single addition assay run, assay plate was removed from the FLIPR Tetra and placed at 25° C. for seven (7) minutes before antagonist assay.
# From the FLIPR data, with negative control correction enabled, the maximum statistic for each well was exported and percentage activation relative to Emax control was calculated.
# [2] = Metabolic stability, human microsomes; type: in vitro ADME; conditions: 37° C.; for Metabolic Stability 60 min hum: % of the initial 0 minutes value at 60 min, 10 μM
# Protocol: (§1) Microsomes from a human 50 donor mixed gender pool and 1:1 mixtures of microsomes from CD-1 mouse single-gender pools are purchased from Celsis (Belgium). The enzymatic reaction is performed in a buffer containing an NADPH regeneration system and microsomes with the following end concentrations: 100 mM potassium phosphate buffer (all from Sigma), 1 mg/mL glucose-6-phosphate, 1 mg/mL β-nicotinamide adenine dinucleotide phosphate (NADP), 0.65 mg/mL magnesium chloride, 0.8 units/mL of glucose-6-phosphate dehydrogenase (prediluted with 5 mM citrate buffer), 10 μM compound and 1 mg/ml microsomal protein. Compounds are incubated at 37° C. in duplicates and samples are taken after 0, 20 and 60 minutes. After acetonitrile precipitation (2 volumes) and HPLC/MS/MS analysis metabolic turnover is expressed in % of the initial 0 minutes value and half life T½ (min) is calculated. Verapamil for human and propranolol for mouse are used as reference and are assayed with every experimental set. • F. P. Guengerich, Analysis and Characterization of Enzymes; in: Principles and Methods of Toxicology; A. W. Hayes (Ed.) Raven Press: New York, 1989, 777-813. • R. Singh et al., In vitro metabolism of a potent HIV-protease inhibitor (141W94) using rat, monkey and human liver S9, Rapid Commun. Mass Spectrom. 1996, 10, 1019-1026. 5. Results
# [3] = both, CD-1, mouse, 10 μM
# Protocol: (§2) Example compounds were dissolved in DMSO/H2O 90:10 to a final concentration of 10 mM for plasma stability determination and metabolic stability determination.
# (§3) Human plasma (3-5 donors, Blutspendedienst SRK, Basel) and CD-1 mouse plasma (mixed gender pool>50 animals, Innovative Research, CA, USA) are both sodium citrate stabilized. The assay is performed in triplicates at 10 μM compound concentration and 37° C. Samples are taken at 0, 15, 60, and 240 minutes and stopped by precipitation with 2 volumes of acetonitrile. The supernatant is collected, evaporated and reconstituted in a 5% acetonitrile solution to be analyzed by HPLC/MS/MS. The resulting peak area counts are expressed in percent of the 0 value and used to determine the endpoint stability in % and the half life T½ in minutes. In order to monitor assay integrity the degradation of propantheline is assayed with every experimental set
# [4] = human, 10 μM
# Protocol: as §2, §3
# [5] = Metabolic stability, CD-1 mouse microsomes; type: in vitro ADME; conditions: 37° C.; for Metabolic Stability 60 min mouse: % of the initial 0 minutes value at 60 min, 10 μM
# Protocol: as §1
# [6] = Plasma stability, human plasma; conditions: endpoint stability in % of the 0 value at 240 min, 10 μM, 37° C.
# Protocol: as §2, §3
# [7] = Plasma stability, CD-1 mouse plasma; conditions: endpoint stability in % of the 0 value at 240 min, 10 μM, 37° C.
# Protocol: as §2, §3
# [8] = amide bond
# [9] = 10 μM compound, 1 mg/ml microsomal protein, sampling up to 60 min
Compound,5-HT2B receptor agonist activity [% activation at 12.5 μM] [1] [%],Metabolic Stability 60 min hum [2] [%],Plasma Stability 240 min mouse [3] [%],Plasma Stability 240 min hum [4] [%],Metabolic Stability 60 min mouse [5] [%],further results
"CC(=O)N[C@H]1C[C@H]2COc3ccc(F)cc3C(=O)N(C)[C@H](C(=O)NCCc3c[nH]c4ccccc34)CCC(=O)N(C)CC(=O)N2C1 [Ex. 9, (2S,11S,19aS)-2-(acetylamino)-15-fluoro-N-[2-(1H-indol-3-yl)ethyl]-7,12-dimethyl-5,8,13-trioxo-2,3,6,7,8,9,10,11,12,13,19,19a-dodecahydro-1H,5H-pyrrolo[2,1-c][1,4,7,12] benzoxatriazacyclopentadecine-11-carboxamide]",48,20,93,99,80,–
"CCCCC(=O)N[C@H]1C[C@H]2COc3ccc(F)cc3C(=O)N(C)[C@@H](C(=O)NCc3ccc4ccccc4c3)CCC(=O)N(C)CC(=O)N2C1 [Ex. 103, (2S,115,19aS)-15-fluoro-7,12-dimethyl-N-(2-naphthylmethyl)-5,8,13-trioxo-2-(pentanoylamino)-2,3,6,7,8,9,10,11,12,13,19,19a-dodecahydro-1H,5H-pyrrolo[2,1-c][1,4,7,12] benzoxatriazacyclopentadecine-11-carboxamide]",–,22,–,–,25,"Plasma Stability 240 min hum [6]: 97%; Metabolic Stability T ½ [min] hum [2, 9]: 35 min; Plasma Stability 240 min mouse [7]: 75%; Metabolic Stability T ½ [min] mouse [5, 9]: 36 min"
"CN1CC(=O)N2C[C@@H](NC(=O)Cc3c[nH]c4ccccc34)C[C@H]2COc2ccc(F)cc2C(=O)N(C)[C@H](C(=O)NCCc2c[nH]c3ccccc23)CCC1=O [Ex. 12, (2S,11S,19aS)-15-fluoro-2-{[2-(1H-indol-3-yl)acetyl]amino}-N-[2-(1H-indol-3-yl)ethyl]-7,12-dimethyl-5,8,13-trioxo-2,3,6,7,8,9,10,11,12,13,19,19a-dodecahydro-1H,5H-pyrrolo [2,1-c][1,4,7,12]benzoxatriazacyclopentadecine-11-carboxamide]",36,7,100,99,33,–
"CN1C[C@H](NC(=O)OCc2ccccc2)C(=O)N(C)CC(=O)N2C[C@@H](NC(=O)OC(C)(C)C)C[C@H]2COc2cncc(c2)C1=O [Ex. 272, benzyl N-[(4S,6S,13S)-6-[(tert-butoxycarbonyl)amino]-11,15-dimethyl-9,12,16-trioxo-2-oxa-8,11,15,19-tetraazatricyclo [15.3.1.0^4,8]henicosa-1(21),17,19-trien-13-yl]carbamate]",–,–,92,95,–,"ring closure, yield of all isomers ([8]; from CNCC(=O)N1C[C@@H](NC(=O)OC(C)(C)C)C[C@H]1COc1cncc(C(=O)N(C)C[C@H](NC(=O)OCc2ccccc2)C(=O)O)c1, T3P, CH2Cl2, 9.75 mM): 38%"
"CN(C)CC(=O)N[C@H]1C[C@H]2COc3ccc(F)cc3C(=O)N(C)[C@H](C(=O)NCCc3c[nH]c4ccccc34)CCC(=O)N(C)CC(=O)N2C1 [Ex. 16, (2S,11S,19aS)-2-{[2-(dimethylamino)acetyl]amino}-15-fluoro-N-[2-(1H-indol-3-yl)ethyl]-7,12-dimethyl-5,8,13-trioxo-2,3,6,7,8,9,10,11,12,13,19,19a-dodecahydro-1H,5H-pyrrolo [2,1-c][1,4,7,12]benzoxatriazacyclopentadecine-11-carboxamide]",45,31,97,95,79,–
CN1CC(=O)N2C[C@H](NC(=O)OC(C)(C)C)C[C@H]2CSc2cccc(c2)C(=O)N(C)[C@H](C(=O)OCc2ccccc2)CCC1=O,–,–,–,–,–,"ring closure, yield of all isomers ([8]; from CNCC(=O)N1C[C@H](NC(=O)OC(C)(C)C)C[C@H]1CSc1cccc(C(=O)N(C)[C@@H](CCC(=O)O)C(=O)OCc2ccccc2)c1, T3P, CH2Cl2, 10.0 mM, 25.0 °C, 3.0 h): 57%"
"CN1CC(=O)N2C[C@@H](NC(=O)OC(C)(C)C)C[C@H]2COc2ccc(F)cc2C(=O)N(C)[C@H](C(=O)NCCc2c[nH]c3ccccc23)CCC1=O [Ex. 30, tert-butyl N-[(2S,11S,19aS)-15-fluoro-11-({[2-(1H-indol-3-yl)ethyl]amino}carbonyl)-7,12-dimethyl-5,8,13-trioxo-2,3,6,7,8,9,10,11,12,13,19,19a-dodecahydro-1H,5H-pyrrolo[2,1-c][1,4,7,12]benzoxatriazacyclopentadecin-2-yl]carbamate]",48,2,100,85,55,–
CN1CC(=O)N2C[C@@H](NC(=O)OC(C)(C)C)C[C@H]2COc2ccc(F)cc2C(=O)N(C)[C@H](C(=O)OCc2ccccc2)CCC1=O,–,–,–,–,–,"ring closure, yield of all isomers ([8]; from CNCC(=O)N1C[C@@H](NC(=O)OC(C)(C)C)C[C@H]1COc1ccc(F)cc1C(=O)N(C)[C@@H](CCC(=O)O)C(=O)OCc1ccccc1, FDPP, DMF, 8.44 mM, 25.0 °C, 22.0 h): 94%"
CN1C(=O)c2cc(F)ccc2OC[C@@H]2CN(C(=O)OC(C)(C)C)CCN2C(=O)CC[C@H]1C(=O)OCc1ccccc1,–,–,–,–,–,"ring closure, yield of all isomers ([8]; from CN(C(=O)c1cc(F)ccc1OC[C@@H]1CN(C(=O)OC(C)(C)C)CCN1)[C@@H](CCC(=O)O)C(=O)OCc1ccccc1, T3P, CH2Cl2, 0.57 mM, 25.0 °C, 22.0 h): 77%"
CN1CC(=O)N2C[C@H](NC(=O)OC(C)(C)C)C[C@H]2COc2ccc(cc2)C(=O)N(C)[C@H](C(=O)OCc2ccccc2)CCC1=O,–,–,–,–,–,"ring closure, yield of all isomers ([8]; from CNCC(=O)N1C[C@H](NC(=O)OC(C)(C)C)C[C@H]1COc1ccc(C(=O)N(C)[C@@H](CCC(=O)O)C(=O)OCc2ccccc2)cc1, T3P, CH2Cl2, 1.05 mM, 3.0 h): 54%"
CN1CC(=O)N2C[C@@H](NC(=O)OCC[Si](C)(C)C)C[C@H]2COc2cccc3c2C[C@@](NC(=O)OC(C)(C)C)(CC3)C(=O)N(C)C[C@H](NC(=O)OCc2ccccc2)C1=O,–,–,–,–,–,"ring closure, yield of all isomers ([8]; from CN(CC(=O)O)C(=O)[C@H](CN(C)C(=O)[C@]1(NC(=O)OC(C)(C)C)CCc2cccc(OC[C@@H]3C[C@H](NC(=O)OCC[Si](C)(C)C)CN3)c2C1)NC(=O)OCc1ccccc1, T3P, CH2Cl2, 10.0 mM, 2.0 h): 44%"
CN1CC(=O)N2C[C@H](NC(=O)OC(C)(C)C)C[C@H]2COc2ccc(F)cc2C(=O)N(C)[C@H](C(=O)OCc2ccccc2)CCC1=O,–,–,–,–,–,"ring closure, yield of all isomers ([8]; from CNCC(=O)N1C[C@H](NC(=O)OC(C)(C)C)C[C@H]1COc1ccc(F)cc1C(=O)N(C)[C@@H](CCC(=O)O)C(=O)OCc1ccccc1, T3P, CH2Cl2, 10.5 mM, 25.0 °C, 22.0 h): 87%"
CN1CCC[C@H](NC(=O)OCc2ccccc2)C(=O)N2C[C@@H](NC(=O)OCC[Si](C)(C)C)C[C@H]2COc2cccc(c2)C1=O,–,–,–,–,–,"ring closure, yield of all isomers ([8]; from CN(CCC[C@H](NC(=O)OCc1ccccc1)C(=O)O)C(=O)c1cccc(OC[C@@H]2C[C@H](NC(=O)OCC[Si](C)(C)C)CN2)c1, T3P, i-Pr2NEt, CH2Cl2, 9.4 mM): 54%"
